Source: paper PMC6155437 (Molecules : A Journal of Synthetic Chemistry and Natural …, 2017)
Entries after “also recorded” stand apart in the source; their conditions may differ.

Key:
Assay type in all cases: in vitro ADME
[1] = biological target: T1, CYP2C9 (Homo sapiens, UniProt P11712); test: CYP2C9 diclofenac 4′-hydroxylase inhibition in human liver microsomes
T1 construct: tissue Corning Life Sciences; host or cells: pooled human liver microsomes (150 donors)
Experimental: (§1) After a 3-min pre-incubation at 37 °C, the reactions were initiated by addition of NADPH and incubation proceeded for 15 min at 37 °C in a shaking water bath. […] The incubation mixtures were centrifuged (13,000× g, 4 min, 4 °C). All assays were performed in triplicate and mean values were used in calculations.
(§2) Each reaction was initiated by adding the seven-CYP probe substrate cocktail.
The reactions were initiated by addition of NADPH at 37 °C and stopped after 10 min by placing the incubation tubes on ice and adding 100 μL of ice-cold methanol containing an internal standard (d9-1-hydroxybufuralol). The incubation mixtures were centrifuged (13,000× g, 4 min, 4 °C) and then 50 μL of the supernatant was diluted with 50 μL of water. Aliquots (5 μL) of the diluted supernatants were analyzed by LC-MS/MS.
The metabolites formed from CYP substrates were quantified simultaneously by a LC-MS/MS method described previously. The ESI source settings in positive-ion mode for metabolite ionization were: capillary voltage, 4200 V; vaporizer temperature, 350 °C; capillary temperature, 330 °C; sheath gas pressure, 35 psi; and auxiliary gas pressure, 15 psi. Quantification was performed by selected reaction monitoring (SRM) of the [M + H]^+ ion and the related product ion for each metabolite: acetaminophen, 152.1 > 110.3; N-desethylamodiaquine, 328.1 > 283.0; 7-hydroxycoumarin, 163.0 > 107.2; 4-hydroxybupropion, 256.1 > 238.0; 4′-hydroxydiclofenac, 312.0 > 231.1; 4′-hydroxy-mephenytoin; 235.1 > 150.1; 1′-hydroxybufuralol, 278.1 > 186.1; 1′-hydroxymidazolam, 341.9 > 324.0; ^13C2,^15N-acetaminophen 155.1 > 111.2; and d9-1′-hydroxybufuralol, 287.2 > 187.0. Analytical data were processed using Xcalibur software (version 2.1, Thermo Scientific).
(§3) The apparent kinetic parameters for inhibitory potential (Ki and kinact values) and inhibition mode were estimated from the fitted curves using the Enzyme Kinetics program (ver. 1.1; Systat Software Inc., San Jose, CA, USA).

[2] = biological target: T2, CYP2D6 (Homo sapiens, UniProt P10635); test: CYP2D6 bufuralol 1′-hydroxylase inhibition in human liver microsomes; details: at 50 µM
T2 construct: pooled human liver microsomes (0.2 mg/mL); tissue Corning Life Sciences; host or cells: pooled human liver microsomes (150 donors)
T2 sequence (P10635 whole entry): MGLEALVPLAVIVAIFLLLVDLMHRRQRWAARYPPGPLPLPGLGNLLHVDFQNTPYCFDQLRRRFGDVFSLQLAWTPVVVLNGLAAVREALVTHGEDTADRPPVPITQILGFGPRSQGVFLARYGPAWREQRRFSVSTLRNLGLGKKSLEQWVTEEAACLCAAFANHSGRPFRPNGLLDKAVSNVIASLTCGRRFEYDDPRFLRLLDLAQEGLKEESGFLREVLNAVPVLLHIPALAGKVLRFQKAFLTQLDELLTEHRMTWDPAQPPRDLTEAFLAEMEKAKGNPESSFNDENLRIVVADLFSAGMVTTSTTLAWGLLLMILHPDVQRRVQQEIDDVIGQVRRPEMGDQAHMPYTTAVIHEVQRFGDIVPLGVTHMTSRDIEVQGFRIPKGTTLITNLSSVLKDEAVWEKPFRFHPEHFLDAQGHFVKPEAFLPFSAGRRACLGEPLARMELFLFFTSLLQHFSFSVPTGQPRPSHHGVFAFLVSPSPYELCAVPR
Experimental: as §1, §2
The metabolites formed from CYP substrates were quantified simultaneously by a LC-MS/MS method described previously. The ESI source settings in positive-ion mode for metabolite ionization were: capillary voltage, 4200 V; vaporizer temperature, 350 °C; capillary temperature, 330 °C; sheath gas pressure, 35 psi; and auxiliary gas pressure, 15 psi. […] Analytical data were processed using Xcalibur software (version 2.1, Thermo Scientific).
as §3

[3] = biological target: T3, UGT1A6 (Homo sapiens, UniProt P19224); test: UGT1A6 N-acetylserotonin glucuronidation inhibition in human liver microsomes; details: at 50 µM
T3 construct: pooled human liver microsomes (0.2 mg/mL), 5 mM UDPGA; tissue Corning Life Sciences; host or cells: pooled human liver microsomes (150 donors)
T3 sequence (P19224 27-532): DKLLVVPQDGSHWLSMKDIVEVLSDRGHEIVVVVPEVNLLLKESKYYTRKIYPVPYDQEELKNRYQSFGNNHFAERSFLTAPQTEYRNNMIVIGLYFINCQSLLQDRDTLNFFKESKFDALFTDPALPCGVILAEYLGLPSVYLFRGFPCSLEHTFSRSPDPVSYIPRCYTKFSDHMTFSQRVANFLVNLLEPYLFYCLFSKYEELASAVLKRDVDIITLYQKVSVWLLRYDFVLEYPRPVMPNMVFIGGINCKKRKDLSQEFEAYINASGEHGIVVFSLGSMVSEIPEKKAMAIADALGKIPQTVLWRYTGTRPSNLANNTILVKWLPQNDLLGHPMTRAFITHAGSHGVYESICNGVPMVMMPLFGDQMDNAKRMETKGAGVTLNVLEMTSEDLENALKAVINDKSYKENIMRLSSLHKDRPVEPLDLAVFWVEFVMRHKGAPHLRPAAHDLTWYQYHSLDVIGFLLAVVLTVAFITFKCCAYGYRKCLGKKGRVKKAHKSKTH
Experimental: (§4) After 3 min of pre-incubation at 37 °C, the reactions were initiated by addition of UDPGA; incubation continued for 60 min at 37 °C in a shaking water bath. The reaction was stopped by placing the tubes on ice and adding 50 µL ice-cold acetonitrile containing internal standards (propofol glucuronide for chenodeoxycholic acid 24-acyl-β-glucuronide and mycophenolic acid glucuronide, and meloxicam for SN-38 glucuronide, trifluoperazine glucuronide, N-acetylserotonin β-D-glucuronide, and naloxone 3-β-D-glucuronide). The incubation mixtures were centrifuged (13,000× g, 4 min, 4 °C). All assays were performed in triplicate and average values were used in calculations.
(§5) The metabolites formed from the six UGT cocktail substrates were measured simultaneously using the LC-MS/MS method. The ESI source settings in both positive- and negative-ion modes for metabolite ionization were: capillary voltage, 4200 V; vaporizer temperature, 350 °C; capillary temperature, 330 °C; sheath gas pressure, 35 psi; and auxiliary gas pressure, 15 psi. […] Data were processed using Xcalibur software.
as §3

[4] = biological target: T4, UGT1A1 (Homo sapiens, UniProt P22309); test: UGT1A1 SN-38 glucuronidation inhibition in ultrapool human liver microsomes; details: at 50 µM
T4 construct: pooled human liver microsomes (0.2 mg/mL), 5 mM UDPGA; tissue Corning Life Sciences; host or cells: pooled human liver microsomes (150 donors)
T4 sequence (P22309 26-533): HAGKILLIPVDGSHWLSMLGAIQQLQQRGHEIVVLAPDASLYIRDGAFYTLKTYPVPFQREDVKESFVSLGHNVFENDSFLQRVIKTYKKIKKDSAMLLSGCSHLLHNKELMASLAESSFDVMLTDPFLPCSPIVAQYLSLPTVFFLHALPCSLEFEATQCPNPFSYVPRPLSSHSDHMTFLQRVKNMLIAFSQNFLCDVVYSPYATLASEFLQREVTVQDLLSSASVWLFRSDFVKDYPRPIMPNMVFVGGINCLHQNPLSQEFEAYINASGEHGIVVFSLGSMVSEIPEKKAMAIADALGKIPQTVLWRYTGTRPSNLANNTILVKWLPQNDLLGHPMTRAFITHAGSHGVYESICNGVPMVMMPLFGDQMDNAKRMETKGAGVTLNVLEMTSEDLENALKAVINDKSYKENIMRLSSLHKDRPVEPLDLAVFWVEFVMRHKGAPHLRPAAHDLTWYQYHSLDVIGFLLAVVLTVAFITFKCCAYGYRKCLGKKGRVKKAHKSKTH
Experimental: as §4, §5, §3

T1 sequence (P11712 whole entry): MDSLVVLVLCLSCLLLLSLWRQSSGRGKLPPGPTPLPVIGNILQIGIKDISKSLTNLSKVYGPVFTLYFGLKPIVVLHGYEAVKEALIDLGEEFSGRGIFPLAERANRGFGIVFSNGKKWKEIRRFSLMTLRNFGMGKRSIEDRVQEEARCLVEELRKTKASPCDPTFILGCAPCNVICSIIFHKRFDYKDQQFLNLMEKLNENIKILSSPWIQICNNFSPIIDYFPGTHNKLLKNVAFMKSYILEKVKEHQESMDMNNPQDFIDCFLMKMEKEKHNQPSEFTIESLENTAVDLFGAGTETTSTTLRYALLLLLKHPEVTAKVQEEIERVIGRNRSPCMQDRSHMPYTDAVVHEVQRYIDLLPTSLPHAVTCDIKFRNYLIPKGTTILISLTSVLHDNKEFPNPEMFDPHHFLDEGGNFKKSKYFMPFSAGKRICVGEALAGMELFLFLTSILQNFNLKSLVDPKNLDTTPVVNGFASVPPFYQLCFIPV

For O=C(c1cccc2ccccc12)c1cn(CCCCCF)c2ccccc12 [AM-2201, 1-(5-fluoropentyl-1H-indol-3-yl)-(naphthalene-1-yl)methanone], the Ki [1] was 3.9 µM, the “Inhibition Mode” value ([1]; CYP2C9 diclofenac 4′-hydroxylation) was “competitively inhibited; also recorded: competitive” and the IC50 ([1]; IC50 (μM) No Preincubation, Diclofenac 4′-hydroxylase, CYP2C9, human liver microsomes, 10 μM diclofenac) was 11.9 µM. For the same compound, the IC50 ([1]; IC50 (μM) With Preincubation, Diclofenac 4′-hydroxylase, CYP2C9, 30 min preincubation with NADPH) was 11.9 µM, the IC50 ([1]; IC50, CYP2C9-catalyzed diclofenac 4′-hydroxylation, abstract) was 3.9 µM and the “inhibition of CYP2D6-mediated bufuralol 1′-hydroxylation” value [2] was “negligibly inhibited”. The “inhibition of UGT1A6-catalyzed N-acetylserotonin glucuronidation” value [3] was “negligibly inhibited” and the “inhibition of UGT1A1-catalyzed SN-38 glucuronidation” value [4] was “negligibly inhibited”.
